Results: patent US11014896B2, “TRPA1 and TRPV4 inhibitors and methods of using the same for organ-specific inflammation and itch” (Duke University, priority 2014, dated 2021)
Entries after “also recorded” stand apart in the source; their conditions may differ.

Assays:
[1] = tested on: primary mouse keratinocytes (1° MK); experiment: UVB-evoked Ca++ signaling in primary mouse keratinocytes (fluo-4 imaging); assay type: cell-based; settings: GSK205 20 μM
Experimental: Ca++ imaging of 1° MK was conducted following routine procedures. For UVB stimulation, a customized device was built. The system comprised a printed circuit board for electrical interconnects and mechanical support and an ultraviolet light-emitting diode (UV LED).
The operating wavelength was 295 nm (FIG. 2A), with a full-width half-max of 12 nm. The optical power was 500 mW. The focal point was aimed at the plane of the upper surface of the quartz coverslip, which was used to minimize UV absorption along the optical path towards the cells (FIG. 2A-FIG. 2C). The optical intensity at the focal point was estimated to be 150 mW/mm^2.
(§1) Ca++ imaging of mouse 1° MK in response to chemical activation of TRPV4 was conducted after loading with 2 μM fura2-AM, following a ratiometric Ca2+ imaging protocol with 340/380 nm […] for dual excitation. Ratios of emissions were acquired at 0.5 Hz. ΔR/R0 was determined as the fraction of the increase of a given ratio over baseline ratio, divided by baseline ratio. For stimulation of cells with UVB, where fura-2 was not suitable because of the proximity of stimulation with 340/380 nm and 295 nm, 2 μM fluo4-AM was used instead. Ca++ imaging was carried out at 488 nm excitation, acquisition of emissions at 0.5 Hz, expressed as ΔF/F0. In the custom-built UV optical system, UV LEDs were capped with a ball lens, a transparent optical window in the shape of a hemispherical lens (FIG. 2B). The LED output optical beam focused at 15-20 mm from the lens, with a spot diameter of approximately 1.5-2.0 mm (FIG. 2C). […] The thermal equilibration stage was set for physiological temperature.

TRPV4 [2] = target: T1, TRPV4 (Mus musculus, UniProt Q9EPK8); experiment: GSK101-evoked Ca++ transient in 1° MK; assay type: cell-based; settings: 5 nM GSK101; GSK205 20 μM
T1 construct: endogenous in cells; host or cells: primary mouse epidermal keratinocytes (1° MK), wild type
Experimental: as §1, with “temperature. We confirmed the non-thermal nature of UVB stimulation using the customized 295 nm LED device in a dedicated experiment (FIG. 2D), thus confirming the specific modality of stimulation as UVB.” for “temperature.”

TRPV4 [3] = target: T1, TRPV4; experiment: 4α-PDD-evoked Ca++ signaling in 1° MK (fura-2); assay type: cell-based; settings: fura-2 ratiometric imaging
Experimental: as §1, with “temperature. We confirmed the non-thermal nature of UVB stimulation using the customized 295 nm LED device in a dedicated experiment (FIG. 2D), thus confirming the specific modality of stimulation as UVB.” for “temperature.”

[4] = Nocifensive behavior in response to ET1 footpad injection (von Frey); assay type: in vivo, mouse; settings: footpad injection of ET1; WT and oil-treated iKO (control) mice
Experimental: ET1 injections: After determining base-line withdrawal thresholds, each animal received an intraplantar injection of 10 μL 100 nM ET-1 plus contralateral vehicle. Thresholds were again evaluated 1 hour after injection.
Hindpaw mechanical withdrawal thresholds were determined by the automated von Frey hair method, using a 0.5 mm diameter stainless steel filament, part of an automated plantar touch stimulator (Ugo Basile, Modena, Italy). Relevant detail included pre-test acclimatization in a quiet room for 30 min, conducting the test at the same time of day and blinded observers. The stimulus was delivered to the hindpaw, automatically discontinued upon withdrawal, and its intensity recorded automatically. 6-8 trials per animal were conducted, with equal exposure of both hindpaws, leading to an average withdrawal threshold. Results are reported as […], which was calculated by subtracting post-treatment from pre-treatment measurements, expressed as % or relative to 1.0.

T1 sequence (Q9EPK8 whole entry): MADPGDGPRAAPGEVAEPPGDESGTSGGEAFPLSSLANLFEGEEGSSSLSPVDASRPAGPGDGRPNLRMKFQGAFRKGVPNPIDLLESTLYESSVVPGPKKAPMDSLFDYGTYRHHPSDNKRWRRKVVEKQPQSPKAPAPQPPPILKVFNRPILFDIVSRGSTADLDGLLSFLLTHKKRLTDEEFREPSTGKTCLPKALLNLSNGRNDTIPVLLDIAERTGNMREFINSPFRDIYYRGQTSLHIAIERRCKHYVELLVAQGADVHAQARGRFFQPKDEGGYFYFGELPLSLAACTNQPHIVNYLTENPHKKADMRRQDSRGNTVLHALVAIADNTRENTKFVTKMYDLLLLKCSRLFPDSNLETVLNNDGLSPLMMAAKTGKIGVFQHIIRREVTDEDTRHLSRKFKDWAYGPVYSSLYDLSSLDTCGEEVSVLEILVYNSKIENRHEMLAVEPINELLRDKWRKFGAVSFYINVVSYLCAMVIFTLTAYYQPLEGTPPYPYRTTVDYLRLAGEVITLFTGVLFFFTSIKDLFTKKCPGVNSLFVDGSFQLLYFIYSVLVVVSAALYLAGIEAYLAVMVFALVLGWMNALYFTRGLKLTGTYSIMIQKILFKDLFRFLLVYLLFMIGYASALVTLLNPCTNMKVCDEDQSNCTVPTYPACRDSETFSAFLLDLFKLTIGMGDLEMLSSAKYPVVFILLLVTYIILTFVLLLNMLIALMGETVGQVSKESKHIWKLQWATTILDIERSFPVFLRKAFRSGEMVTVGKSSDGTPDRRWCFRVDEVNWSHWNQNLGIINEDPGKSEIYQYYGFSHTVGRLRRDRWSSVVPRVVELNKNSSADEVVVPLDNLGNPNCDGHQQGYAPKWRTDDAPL

Substance: ET1: endothelin-1, cognate peptide ligand of endothelin receptors
- UVB-evoked Ca++ signaling (ΔF/F0) [1]: significant increase; also recorded: augmentation
- GSK101-evoked Ca++ transient (TRPV4 [2]): augmented; also recorded: increase in signal
- 4α-PDD-evoked Ca++ transients on co-application (TRPV4 [3]): significant increase in the response
- mechanical allodynia / von Frey withdrawal thresholds after ET1 injection [4]: significantly lowered; also recorded: significant levels of mechanical allodynia
